In publication PMC2376372, “3-Bromophenyl 6-acetoxymethyl-2-oxo-2H-1-benzopyran-3-carboxylate inhibits cancer cell invasion in vitro and tumour growth in vivo” (British Journal of Cancer, 2003):

Experiments:
[1] = system: HT1080 fibrosarcoma cells; experiment: Chemoinvasion assay, type IV collagen-coated Transwell inserts (Boyden chamber); assay type: cell-based, human; settings: Homo sapiens, HT-1080, 48 h, type IV collagen-coated filters, read-out: inhibition of HT1080 cell invasion (chemoinvasion)
Procedure: Plates (24-well) (Falcon, Becton-Dickinson, USA) and 6.5 mm polycarbonate filters (8 μm pore size) of Transwell cell culture chamber inserts (Costar, Netherlands) were coated with 100 μl of type IV collagen purified from human placenta diluted at 200 μg ml^−1 in phosphate-buffered saline (PBS). Coats were left to air-dry overnight in a laminar flow hood under UV light. Uniformity of the coating was assessed by Coomassie blue staining. Before use, coated plates and inserts were washed twice with water and incubated for at least 1 h in serum-free DMEM at 37°C ([Maquoi et al, 1999]).
HT1080 cells exponentially growing in T-75 flasks (Nunc, Costar, Netherlands) were collected by trypsin–ethylenediaminetetraacetic acid treatment, washed with serum-containing medium and allowed to recover from trypsinisation for at least 30 min at 37°C. Cells were then washed twice in serum-free DMEM and diluted in the same medium supplemented with 0.1% bovine serum albumin (BSA, fraction V, Sigma, USA) to a cell density of 6 × 10^5 cells ml^−1.
The influence of coumarin derivatives (0.1, 1 and 10 μM) on HT1080 cell invasion and migration was assayed using Transwell cell culture inserts (Costar) and compared to the reference compound GI 129471 (1 μM), an MMP inhibitor ([Wheeler et al, 1998]).
For chemoinvasion assays, type IV collagen-coated membranes (see above) were used, whereas uncoated membranes were employed for chemotaxis assays. Lower wells of chambers were filled with DMEM supplemented with 20% FCS and 1% BSA (fraction V, ICN) as chemoattractant, in the presence or absence of coumarin derivative (final concentration 0.1, 1 and 10 μM) or GI 129471 (final concentration 1 μM). Cells (6 × 10^4) suspended in DMEM supplemented with 0.1% BSA (fraction V, ICN) were seeded in the upper wells. Chambers were subsequently incubated for 48 and 4 h for chemoinvasion and chemotaxis assays, respectively, in a humid atmosphere at 37°C (in order to maintain a chemotactic gradient, media from both lower and upper wells were renewed after 24 h). After incubation, filters were removed from the chambers, fixed in 4% paraformaldehyde for 15 min (4°C), permeabilised for 10 min in methanol (−20°C) and stained with Giemsa (4%) for 15 min. The upper surface of the filters was scrapped with a cotton swab and cells having reached the lower surface of the filters were visually counted using a light microscope (Vanox AH3, Olympus, Hamburg, Germany) at 20-fold magnification. Each assay was performed in triplicate. Results were expressed as percentages (±s.d.) of the migration of control cells.

MMP-2 = molecular target: T1, MMP-2 (Homo sapiens, UniProt P08253); experiment: Inhibition of purified MMP-2; assay type: biochemical; settings: purified enzyme, pH 7.5, 25°C
T1 construct: purchased Calbiochem
T1 sequence (P08253 110-660): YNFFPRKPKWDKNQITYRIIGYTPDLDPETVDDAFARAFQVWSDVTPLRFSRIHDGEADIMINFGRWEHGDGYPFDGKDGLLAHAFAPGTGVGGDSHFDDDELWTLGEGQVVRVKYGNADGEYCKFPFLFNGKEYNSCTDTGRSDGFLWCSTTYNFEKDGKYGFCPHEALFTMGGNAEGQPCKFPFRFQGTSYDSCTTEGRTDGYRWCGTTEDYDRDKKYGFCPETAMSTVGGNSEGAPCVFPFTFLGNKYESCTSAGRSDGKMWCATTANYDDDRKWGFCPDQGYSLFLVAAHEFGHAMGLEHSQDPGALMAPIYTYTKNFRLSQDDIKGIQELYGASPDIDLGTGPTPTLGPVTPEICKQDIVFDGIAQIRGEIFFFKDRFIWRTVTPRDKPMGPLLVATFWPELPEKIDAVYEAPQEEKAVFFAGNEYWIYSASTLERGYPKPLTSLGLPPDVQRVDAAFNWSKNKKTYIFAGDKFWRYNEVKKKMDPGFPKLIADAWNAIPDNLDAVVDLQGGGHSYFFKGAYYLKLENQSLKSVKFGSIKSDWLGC
Procedure: (§1) Bovine α-CT and LMW-uPA (MW=33 000 Da) were purchased from Sigma, HMW-uPA (MW=54 000 Da) from Choay, trypsin (TRY) and THR from Boehringer-Indelheim (Germany), and MMP-2 and MMP-9 from Calbiochem. Human leucocyte elastase and PM were from Elastase Products Co. and Biogenic, respectively. Except for THR, HMW-uPA, MMP-2 and MMP-9, enzyme concentrations were determined by active-site titrations using the appropriate titrant ([Bender et al, 1966]; [Chase and Shaw, 1970]; [Powers and Gupton, 1977]). Several enzymes were assayed spectrophotometrically at 405 nm using the following p-nitroanilide substrates: succininyl-Ala2-Pro-Phe-p-nitroanilide (Suc-AAPF-p-NA), benzoyl-Arg-p-nitroanilide (Bz-R-p-NA) and methoxysuccinyl-Ala2-Pro-Val-p-nitroanilide (MeO-Suc-AAPV-p-NA) for α-CT, TRY and HLE, respectively (obtained from Sigma); or S-2238 ([…]), S-2444 (<Glu-Gly-Arg-p-nitroanilide) and S-2251 (H-D-Val-Leu-Lys-p-nitroanilide) for THR, HMW- and LMW-uPA, and PM, respectively (from Biogenic). Matrix metalloprotease-2 previously activated by treatment with APMA were assayed at 412 nm with the thiopeptide Ac-Pro-Leu-Gly-^Sleu-Leu-Gly-Oet in the presence of 5,5′-dithiobis(2-nitrobenzenic) acid (DTNB). […]

MMP-9 = molecular target: T2, MMP-9 (Homo sapiens, UniProt P14780); experiment: Inhibition of purified MMP-9; assay type: biochemical; settings: purified enzyme, pH 7.5, 25°C
T2 construct: purchased Calbiochem
Procedure: as §1

T2 sequence (P14780 94-707, species assumed): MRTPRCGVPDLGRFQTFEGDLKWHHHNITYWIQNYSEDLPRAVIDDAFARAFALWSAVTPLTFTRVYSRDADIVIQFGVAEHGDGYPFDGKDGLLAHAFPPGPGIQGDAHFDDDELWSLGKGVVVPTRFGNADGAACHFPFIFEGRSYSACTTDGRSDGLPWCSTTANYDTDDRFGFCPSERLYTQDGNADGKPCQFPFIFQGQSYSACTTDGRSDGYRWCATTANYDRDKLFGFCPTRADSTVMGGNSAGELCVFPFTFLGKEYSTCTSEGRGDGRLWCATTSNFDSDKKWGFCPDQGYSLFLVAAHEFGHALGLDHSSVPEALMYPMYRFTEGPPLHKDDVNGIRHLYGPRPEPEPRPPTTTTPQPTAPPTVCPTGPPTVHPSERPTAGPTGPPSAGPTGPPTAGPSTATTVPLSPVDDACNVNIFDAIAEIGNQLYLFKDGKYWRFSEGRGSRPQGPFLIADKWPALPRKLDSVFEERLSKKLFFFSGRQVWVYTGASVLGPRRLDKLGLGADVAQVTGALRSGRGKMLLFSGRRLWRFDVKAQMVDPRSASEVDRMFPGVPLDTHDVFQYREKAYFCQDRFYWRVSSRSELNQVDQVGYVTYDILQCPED

| Compound | inhibition at 1 µM [1] | inhibition at 10 µM [1] | inhibition of MMP-2 (MMP-2) | inhibition of MMP-9 (MMP-9) |
| --- | --- | --- | --- | --- |
| CC(=O)OCc1ccc2oc(=O)c(C(=O)Oc3cccc(Cl)c3)cc2c1 [compound 4, 3-chlorophenyl 6-acetoxymethyl-2-oxo-2H-1-benzopyran-3-carboxylate] | 50% | 90% | not affected | not affected |
| CC(=O)OCc1ccc2oc(=O)c(C(=O)Oc3cccc(Br)c3)cc2c1 [compound 7, 3-bromophenyl 6-acetoxy-methyl-2-oxo-2H-1-benzopyran-3-carboxylate] | 80% | ~90% | not affected | not affected |
